# Laboratory results reported in patent US20240342168A1, “SMALL MOLECULE INHIBITORS FOR ANTI-CANCER COMBINATION THERAPY” (UNIVERSITY OF CAPE TOWN, priority 2021, published 2024).
# How the values were obtained:
# [1] = system: NFκB-p50 and NFκB-p65 in SiHa cells; assay: Immunofluorescence of NFκB nuclear localization; format: cell-based
# Protocol: SiHa cells were plated on glass coverslips and treated for 24 h before fixation with 4% paraformaldehyde. Cells were permeabilised using 0.5% Triton-X-100/PBS and blocked using 1% BSA/PBST with 0.3 M Glycine. Primary antibody incubations were performed in 1% BSA/PBST, followed by secondary antibody incubation (Cy3 conjugated goat anti-rabbit, Jackson ImmunoResearch). Cell nuclei were counterstained with 0.5 μg/mL DAPI, and images captured using the Zeiss inverted fluorescence microscope under 100× oil immersion.
# [2] = system: cyclin D1, c-Myc and XIAP; assay: Western blot of NFκB targets; format: cell-based; conditions: INI-43-cisplatin combination vs single cisplatin, concentration dependent
# Protocol: (§1) For protein extraction, cells were washed with PBS and lysed using RIPA buffer (50 mM Tris-CI, pH 7.4, 150 mM NaCl, 1% (w/v) sodium deoxycholate, 0.1% (v/v) SDS, 1% (v/v) Triton X-100, 2 mM EGTA, 2 mM EDTA, 50 mM NaF, 5 mM Na2P2O7, 1× complete protease inhibitor cocktail (Roche) and 0.1 M Sodium Orthovanadate). For PARP cleavage analysis, dead cells were collected by centrifugation and combined with live cell lysates. Lysates were sonicated, centrifuged, and the supernatant quantified using the BCA Protein Assay Kit (Pierce, Thermo Scientific) according to the manufacturer's instructions. Proteins were subjected to Western blot analysis using the following antibodies: rabbit anti-Kpnβ1 (H-300, sc-11,367, Santa Cruz), rabbit anti-β-tubulin (H-235, sc-9104, Santa Cruz), rabbit anti-PARP1/2 antibody (H-250, sc-7150, Santa Cruz), mouse anti-GAPDH (0411, sc-47,724, Santa Cruz), rabbit anti-p21 (H-164, sc-756, Santa Cruz), rabbit anti-Mcl-1 (H-260, sc-20,679, Santa Cruz), mouse anti-cyclin D1 (HD11, sc-246, Santa Cruz), rabbit anti-c-Myc (N-262, sc-764, Santa Cruz), mouse anti-p53 (DO-7, M7001, DakoCytomation), mouse anti-XIAP (610,763, BD Biosciences), and rabbit anti-phospho-Histone H2AX (γH2AX, Ser139, 20E3, #9718, Cell Signal).
# [3] = system: p53 in SiHa cells; assay: p53 half-life determination (cycloheximide chase, Western blot); format: cell-based; conditions: 5 μM INI-43 2 h vs DMSO, then 50 μg/mL CHX
# Protocol: Cells were treated with 5 μM INI-43 or DMSO for 2 hours or transfected with 20 nM si-ctrl or si-Kpnβ1 for 48 h prior to p53 half-life determination. Cells were treated with 50 μg/mL cycloheximide (CHX), and protein harvested at 0, 15, 30, 45, 60 and 90 min after CHX treatment. p53 content was analysed by western blotting. Bands were quantified by densitometrical scanning using ImageJ, normalised to GAPDH and expressed as a value relative to p53 intensity at time 0. Relative band intensities were plotted in log scale against time of CHX treatment and a linear trendline drawn. The half-life was calculated using the formula T1/2 (minutes)=Log(2)/[slope].
# [4] = system: NFκB-p50 and NFκB-p65 in SiHa cells; assay: Nuclear/cytoplasmic fractionation and Western blot; format: cell-based; conditions: INI-43-cisplatin CT vs cisplatin
# Protocol: For protein extraction, cells were washed with PBS and lysed using RIPA buffer (50 mM Tris-CI, pH 7.4, 150 mM NaCl, 1% (w/v) sodium deoxycholate, 0.1% (v/v) SDS, 1% (v/v) Triton X-100, 2 mM EGTA, 2 mM EDTA, 50 mM NaF, 5 mM Na2P2O7, 1× complete protease inhibitor cocktail (Roche) and 0.1 M Sodium Orthovanadate). For PARP cleavage analysis, dead cells were collected by centrifugation and combined with live cell lysates. Lysates were sonicated, centrifuged, and the supernatant quantified using the BCA Protein Assay Kit (Pierce, Thermo Scientific) according to the manufacturer's instructions. […]
# For nuclear/cytoplasmic protein extraction, cells were collected by trypsinization. […] The fractions were quantified using the BCA Protein Assay Kit (Pierce, Thermo Scientific) according to the manufacturer's instructions, followed by western blot analysis.
# [5] = system: HeLa; assay: Combination index (CI) determination, Chou-Talalay method; format: cell-based; conditions: HeLa cervical cancer cell line
# Protocol: (§2) To elucidate the nature of the combined use of INI-43 and cisplatin, the Chou-Talalay method was adopted (Chou T C, Talalay P. Quantitative analysis of dose-effect relationships: the combined effects of multiple drugs or enzyme inhibitors. Adv Enzym Regul. 1984; 22:27-55). Cell viability was determined after 48-h treatment at fixed INI-43 to cisplatin ratios of 1:3, 1:4 and 1:5 (Table 1 below). Cell viability was converted to fraction affected (Fa) and CI calculated using CompuSyn software (ComboSyn, Inc.).
# [6] = system: WHC05; assay: as above; format: cell-based; conditions: WHC05 oesophageal cancer cell line
# Protocol: as §2
# [7] = system: p65 reporter activity in SiHa cells; assay: p65-luciferase reporter assay; format: cell-based; conditions: pre-treated with INI-43 then cisplatin
# Protocol: (§3) SiHa cells were transfected with 100 ng p65-luciferase reporter construct (containing five copies of the p65-binding site, Promega) or 200 ng p53-luciferase reporter construct (containing thirteen wildtype p53 binding sites, Addgene plasmid #16442, Addgene Plasmid Repository (el-Deiry W S, Tokino T, Velculescu V E, Levy D B, Parsons R, Trent J M, et al. WAF1, a potential mediator of p53 tumor suppression. Cell. 1993; 75(4):817-25) and 10 ng pRL-TK (encoding Renilla luciferase, Promega), using Genecellin transfection reagent (Celtic Molecular Diagnostics). The following day cells were treated with 5 μM INI-43 for 2 h, followed by 30 μM cisplatin for 24 h, and luciferase activity assayed using the Dual-Luciferase Report assay system (Promega), according to the manufacturer's instructions. Luciferase readings were measured using the Veritas™ microplate luminometer (Promega) and normalised to Renilla luciferase from the same extract.
# [8] = system: NFκB-p65 in cancer cells; conditions: van der Watt et al. 2016; cited from earlier work
# [9] = system: p53, p21 and Mcl-1 in SiHa cells; assay: Western blot of p53 and p53 targets; format: cell-based
# Protocol: as §1
# [10] = system: p53 reporter activity in SiHa cells; assay: p53-luciferase reporter assay; format: cell-based
# Protocol: as §3
smiles,measurement,setting,value
CN(C)CCCn1c(N)c(-c2nc3ccccc3[nH]2)c2nc3ccccc3nc21 [INI-43],nuclear fluorescence relative to cytoplasmic fluorescence (Fc (Nu/Cy)),[1]; INI-43-cisplatin CT vs cisplatin,significantly reduced this effect
same,cisplatin-induced nuclear translocation of NFκB-p50 and NFκB-p65,[1]; INI-43 pre-treatment plus cisplatin,prevented this nuclear translocation
same,"levels of cyclin D1, c-Myc and XIAP",[2],all reduced
same,increase in p53 half-life,[3],~2.9 fold
same,levels of NFκB-p50 and NFκB-p65 in the nucleus,[4],reduced this effect
same,nature of INI-43 and cisplatin combination (CI),[5],synergism
same,nature of INI-43 and cisplatin combination (CI),[6],synergism
same,cisplatin-induced increase in p65 activity,[7],reduced
same,PMA-stimulated nuclear entry of NFκB-p65,[8],prohibited
same,"Mcl-1 levels, INI-43 and cisplatin vs single cisplatin",[9]; 60 μM cisplatin,reduced
same,"p21 levels, INI-43 and cisplatin vs single cisplatin",[9]; 30 and 60 μM cisplatin,elevated
same,p53 protein levels,"[9]; SiHa, treatment with INI-43 and cisplatin",increased
same,p53 reporter activity,"[10]; 5 μM INI-43 alone, 24 h",small but significant increase
same,p53 reporter activity,[10]; INI-43 pre-treatment plus cisplatin vs cisplatin alone,significantly increased
